Legend:
[1] = test system: patients after esophagectomy; assay: Phase I study of ghrelin administration during the postoperative period after esophagectomy; format: in vivo, human
[2] = test system: patients undergoing esophagectomy; assay: Postoperative complications according to the Clavien-Dindo classification; format: in vivo, human
Description: Forty patients with primary esophageal cancer who underwent esophagectomy were selected to participate in a randomized, placebo-controlled phase II study. The patients were selected based on the following eligibility criteria: (1) thoracic esophageal cancer treated by performing radical esophagectomy with gastric tube reconstruction; (2) age 20 to 75 years; (3) adequate functioning of major organs; (4) no other active malignancies; and (5) provision of written informed consent. The following exclusions criteria were used: (1) preoperative diagnosis of esophageal cancer invasion to the aorta or trachea and other organs; (2) patients with multiple cancer; (3) severe respiratory problems, such as emphysema; (4) patients with prior ischemic heart disease; (5) liver cirrhosis or active hepatitis; (6) renal failure requiring dialysis treatment; (7) poorly controlled diabetes mellitus or disease requiring insulin treatment; (8) consecutive use of steroids; and (9) mental disorder. The patients were randomly divided into a ghrelin group and a placebo group at a 1:1 ratio. The approach for thoracic manipulation (i.e., open or thoracoscopic surgery) was used as the only stratification factor. Group allocation was performed before the initiation of surgery. The study was performed in a double-blind manner, and an independent researcher assessed outcomes.
(§1) The primary endpoint of this study was SIRS duration. The secondary endpoints were postoperative complications, serum C-reactive protein (CRP) and IL-6 levels, time required to attain a positive nitrogen balance, and changes in body weight and body composition. Postoperative complications were defined as adverse events caused by surgery. Patients received an intravenous continuous infusion of ghrelin (0.5 μg/kg/h) or placebo (pure saline) for 5 days postoperatively. Ghrelin was diluted to a final volume of 48 mL with saline, and the solution was administered at a rate of 2 mL/h by using an infusion pump through a central venous catheter inserted into the right subclavian vein. The same amount of ghrelin was administered via intravenous infusion during the 5 days of treatment; the dose was calculated on the basis of body weight on the day before surgery. Patients in the placebo group received the corresponding infusion containing pure saline using same procedure.
(§2) Blood sampling was performed at the following 7 time points: before surgery; 2 hours after initiation of surgery (during thoracotomy); 4 hours after initiation of surgery (during laparotomy); and on PODs 1, 3, 7, and 10. Complete blood count was performed every day for at least 10 PODs. If the leukocyte count was not within the normal range on POD10, complete blood counts were performed daily until it was within the normal range for 3 consecutive days. SIRS was diagnosed according to the criteria proposed by the American College of Chest Physicians/Society of Critical Care Medicine Consensus Conference^32 and when 2 or more of the following criteria were present: (1) body temperature less than 36° C. or more than 38° C.; (2) heart rate more than 90 beats per minute; (3) tachypnea with more than 20 breaths per minute or an arterial partial pressure of carbon dioxide less than 32 mm Hg; and (4) white blood cell count less than 4000 cells/mm^3, >12,000 cells/mm^3, or an immature (band) form more than 10%. Postoperative complications were evaluated according to the Clavien-Dindo classification.^33 Grade I required no treatment, grade II required medical therapy, grade Ma required interventions but not general anesthesia, grade Mb required general anesthesia, grade IV represented life-threatening states that required intensive care, and grade V represented death.

C-reactive protein (CRP) = assay: Postoperative change in serum CRP; format: in vivo, human; settings: n=20
Protocol: as §1, §2

GH secretion = assay: Mode of ghrelin administration and GH secretion (unpublished data); format: in vivo; settings: continuous infusion vs periodic injection
[3] = test system: patients undergoing esophagectomy; assay: SIRS duration after esophagectomy, randomized placebo-controlled phase II study; format: in vivo, human; settings: ghrelin 0.5 μg/kg/h continuous i.v. infusion for 5 days, n=20
Protocol: Forty patients undergoing esophagectomy were randomly assigned to either the ghrelin group (n=20), which received continuous infusion of ghrelin (0.5 μg/kg/h) for 5 days, or the placebo group (n=20), which received pure saline for 5 days. The primary endpoint was SIRS duration. The secondary endpoints were the incidence of postoperative complications, time of a negative nitrogen balance, changes in body weight and composition, and levels of inflammatory markers, including C-reactive protein (CRP) and interleukin-6 (IL-6).
Forty patients with primary esophageal cancer who underwent esophagectomy were selected to participate in a randomized, placebo-controlled phase II study. The patients were selected based on the following eligibility criteria: (1) thoracic esophageal cancer treated by performing radical esophagectomy with gastric tube reconstruction; (2) age 20 to 75 years; (3) adequate functioning of major organs; (4) no other active malignancies; and (5) provision of written informed consent. […] The study was performed in a double-blind manner, and an independent researcher assessed outcomes.
The primary endpoint of this study was SIRS duration. […] The same amount of ghrelin was administered via intravenous infusion during the 5 days of treatment; the dose was calculated on the basis of body weight on the day before surgery. […]

[4] = ghrelin 0.5 μg/kg/h continuous i.v. for 5 days, n=20

CCCCCCCC(=O)OC[C@H](NC(=O)[C@H](CO)NC(=O)CN)C(=O)N[C@@H](Cc1ccccc1)C(=O)N[C@@H](CC(C)C)C(=O)N[C@@H](CO)C(=O)N1CCC[C@H]1C(=O)N[C@@H](CCC(=O)O)C(=O)N[C@@H](Cc1cnc[nH]1)C(=O)N[C@@H](CCC(N)=O)C(=O)N[C@@H](CCCNC(=N)N)C(=O)N[C@H](C(=O)N[C@@H](CCC(N)=O)C(=O)N[C@@H](CCC(N)=O)C(=O)N[C@@H](CCCNC(=N)N)C(=O)N[C@@H](CCCCN)C(=O)N[C@@H](CCC(=O)O)C(=O)N[C@@H](CO)C(=O)N[C@@H](CCCCN)C(=O)N[C@@H](CCCCN)C(=O)N1CCC[C@H]1C(=O)N1CCC[C@H]1C(=O)N[C@@H](C)C(=O)N[C@@H](CCCCN)C(=O)N[C@@H](CC(C)C)C(=O)N[C@@H](CCC(N)=O)C(=O)N1CCC[C@H]1C(=O)N[C@@H](CCCNC(=N)N)C(=O)O)C(C)C [ghrelin]
systemic inflammation relative to conventional management protocols without ghrelin [1]: tended to be suppressed
effect on fundamental vital signs (blood pressure, heart rate, urine output, pulmonary and liver function) ([1]; postoperative intensive care management): did not affect fundamental vital signs
Anastomotic leak, number of patients ([2]; Grade 0, n=20): 19
Arrhythmia, number of patients ([2]; Grade 0, n=20): 19
Bleeding, number of patients ([2]; Grade 0, n=20): 20
Lymphorrhea, number of patients ([2]; Grade 0, n=20): 20
Pneumonia, atelectasis, number of patients ([2]; Grade 0, n=20): 14
Recurrent nerve paralysis, number of patients ([2]; Grade 0, n=20): 18
Wound infection, number of patients ([2]; Grade 0, n=20): 19
Anastomotic leak, number of patients ([2]; Grade I, II, n=20): 1
Arrhythmia, number of patients ([2]; Grade I, II, n=20): 1
Bleeding, number of patients ([2]; Grade I, II, n=20): 0
Lymphorrhea, number of patients ([2]; Grade I, II, n=20): 0
Pneumonia, atelectasis, number of patients ([2]; Grade I, II, n=20): 4
Recurrent nerve paralysis, number of patients ([2]; Grade I, II, n=20): 2
Wound infection, number of patients ([2]; Grade I, II, n=20): 1
Anastomotic leak, number of patients ([2]; Grade III, IV, n=20): 0
Arrhythmia, number of patients ([2]; Grade III, IV, n=20): 0
Bleeding, number of patients ([2]; Grade III, IV, n=20): 0
Lymphorrhea, number of patients ([2]; Grade III, IV, n=20): 0
Pneumonia, atelectasis, number of patients ([2]; Grade III, IV, n=20): 2
Recurrent nerve paralysis, number of patients ([2]; Grade III, IV, n=20): 0
Wound infection, number of patients ([2]; Grade III, IV, n=20): 0
Postoperative complications of higher than grade 1 (Clavien-Dindo), number of patients [2, 4]: 10
Postoperative complications of higher than grade 1 (Clavien-Dindo), share of patients [2, 4]: 50%
incidence of pulmonary complications, including postoperative pneumonia and atelectasis, versus placebo group ([2]; ghrelin 0.5 μg/kg/h continuous i.v. for 5 days, P=0.016): significantly lower
Serum CRP (C-reactive protein (CRP); POD1): 6.6 ± 2.0 mg/dL
Serum CRP (C-reactive protein (CRP); POD3): 11.1 ± 6.6 mg/dL
Serum CRP (C-reactive protein (CRP); POD3, listed as Ghrelin): 11.1 ± 6.6 mg/dL
Serum CRP (C-reactive protein (CRP); POD7): 4.3 ± 3.6 mg/dL
Serum CRP (C-reactive protein (CRP); POD7, listed as Ghrelin): 4.3 ± 3.6 mg/dL
Serum CRP (C-reactive protein (CRP); POD10): 2.1 ± 2.3 mg/dL
Serum CRP (C-reactive protein (CRP); POD10, listed as Ghrelin): 2.1 ± 2.3 mg/dL
Serum CRP (C-reactive protein (CRP); Preoperative (baseline)): 0.3 ± 0.5 mg/dL
GH secretion by mode of ghrelin administration (GH secretion): continuous infusion was better than periodic injection
SIRS duration [3]: 3.0 ± 2.9 days
